Assay results reported in US20030083375A1, “11Beta-fluoro 15beta-hydroxy PGF2alpha analogs as FP receptor antagonists” (priority 1997, published 2003).
Read-outs that look alike come from different tables or passages of the source.

Key:
FP receptor [1] = target: T1, FP receptor (Rattus norvegicus, UniProt P43118); assay: Antagonism of fluprostenol-stimulated [3H]IPs production in A7r5 cells; assay type: cell-based
T1 construct: Two cell lines containing the FP receptor have been extensively characterized by this method; host or cells: A7r5 rat thoracic aorta smooth muscle cells
T1 sequence (P43118 whole entry): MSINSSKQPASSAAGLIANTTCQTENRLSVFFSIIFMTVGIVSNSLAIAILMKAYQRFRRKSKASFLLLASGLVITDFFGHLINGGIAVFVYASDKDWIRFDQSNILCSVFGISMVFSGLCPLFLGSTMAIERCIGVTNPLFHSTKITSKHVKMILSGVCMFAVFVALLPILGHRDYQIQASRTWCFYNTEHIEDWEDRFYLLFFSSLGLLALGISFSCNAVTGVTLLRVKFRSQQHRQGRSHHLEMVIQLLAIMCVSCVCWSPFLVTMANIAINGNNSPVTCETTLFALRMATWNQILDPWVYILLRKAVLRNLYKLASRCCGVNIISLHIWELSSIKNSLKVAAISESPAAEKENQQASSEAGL
Description: (§1) Confluent monolayer cultures of cells (in a standard 24-well tissue culture plate) expressing the FP receptor are exposed to [^3H]-myo-inositol (1.5 μCi in a volume of 0.5 ml DMEM culture medium supplemented with 2 mM L-glutamine and 10 μg/ml gentamicin sulfate) in the absence of serum, which causes net incorporation of the radioisotope into the phosphotidylinositol membrane lipids. After 24-32 hrs, the medium with the radioisotope is removed and the cells are rinsed once with DMEM/F-12 medium containing 10 mM LiCl (assay medium). Then 0.5 ml of assay medium is added to each well of cells, followed by addition of varying concentrations of an FP receptor agonist (or other test compound). Cells are exposed to the test agent for 30-120 min in a humidified incubator (95% air/5% CO2), maintained at 37° C. Then the assay medium is removed and 1 ml of 0.1 M formic acid is added to the cell monolayer to inactivate the phospholipase C release the radiolabelled products into the assay medium. The presence of LiCl during the agonist stimulation period inhibits phosphatases and permits the accumulation of radiolabelled inositol phosphates (IPs) which is measured by ion exchange chromatography.
The agonist-dependent production of IPs, which reflects the degree of receptor activation, is quantitatively measured for each well of cells in the 24-well plate by separating the negatively charged radiolabelled IPs from other minor radiolabelled species and free [^3H]-myo-inositol by anion exchange chromatography. This is accomplished by adding 0.9 ml of the cell lysate obtained as described above to a column packed with 1 ml of AG 1-X8 anion exchange resin in the formate form. The elution and separation of the radiolabelled IPs from the column consists of sequential additions to the column of: 1) 10 ml of water; 2) 8 ml of 50 mM ammonium formate; and 3) 4 ml of 1.2 M ammonium formate solution containing 0.1 M formic acid. The first two washes are discarded, and the third is collected in a scintillation vial, to which is added 15 ml of a water-accepting scintillation fluid. These samples, i.e., the radiolabelled IPs formed by the cells in response to stimulation by an FP prostaglandin receptor agonist or other test agent, is then measured by scintillation spectrometry on a beta-counter.
The dependence of the level of the [^3H]IPs production on agonist concentration is analyzed by standard pharmacological methods to determine the potency (EC50 value) and efficacy (maximum response; Emax) of the FP receptor agonist relative to a standard FP receptor agonist such as fluprostenol. […] The agonist stimulation is then continued for the standard time (30-120 min), after which the procedure for quenching the reaction, separating the [^3H]IPs, and anion exchange chromatography is identical to the procedure described above. A compound is considered to be an antagonist in this protocol if it inhibits the agonist-stimulated [^3H]IPs production relative to the production measured in the control experiment (performed in parallel), in which the solvent is substituted for the antagonist.
Two different antagonist protocols are employed: 1) the antagonist concentration is varied while holding the agonist concentration fixed at a concentration approximately 10 times the agonist EC50 value and 2) the antagonist concentration is fixed in a given experiment, with the agonist concentration varied, and several such experiments, each with a different, fixed antagonist concentration, are performed. […] Overall, the Ki and Kb values are synonymous and represent the antagonist potency of the antagonist at equilibrium.

FP receptor [2] = target: T1, FP receptor; assay: Agonist stimulation of [3H]IPs production in A7r5 cells; assay type: cell-based
Description: as §1
The agonist-dependent production of IPs, which reflects the degree of receptor activation, is quantitatively measured for each well of cells in the 24-well plate by separating the negatively charged radiolabelled IPs from other minor radiolabelled species and free [^3H]-myo-inositol by anion exchange chromatography. […] These samples, i.e., the radiolabelled IPs formed by the cells in response to stimulation by an FP prostaglandin receptor agonist or other test agent, is then measured by scintillation spectrometry on a beta-counter.
The dependence of the level of the [^3H]IPs production on agonist concentration is analyzed by standard pharmacological methods to determine the potency (EC50 value) and efficacy (maximum response; Emax) of the FP receptor agonist relative to a standard FP receptor agonist such as fluprostenol. […]

human ocular FP receptor = target: T2, human ocular FP receptor (Homo sapiens, UniProt P43088); assay: Antagonism of fluprostenol-induced [3H]IPs production in HEK-293 cells expressing recombinant human ocular FP receptor; assay type: cell-based
T2 construct: expressed in transfected cells; host or cells: HEK-293 (human embryonic kidney)
T2 sequence (P43088 whole entry): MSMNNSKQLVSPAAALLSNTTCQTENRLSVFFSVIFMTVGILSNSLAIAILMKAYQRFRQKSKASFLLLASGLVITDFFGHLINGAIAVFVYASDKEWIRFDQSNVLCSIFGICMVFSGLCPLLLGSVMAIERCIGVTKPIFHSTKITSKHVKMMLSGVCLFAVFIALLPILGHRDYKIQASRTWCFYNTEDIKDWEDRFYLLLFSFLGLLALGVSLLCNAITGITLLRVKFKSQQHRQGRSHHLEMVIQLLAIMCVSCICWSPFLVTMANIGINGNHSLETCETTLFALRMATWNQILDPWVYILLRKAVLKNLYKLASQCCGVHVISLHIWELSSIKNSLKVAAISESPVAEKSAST
Description: as §1, with “Then the assay medium is removed and 1 ml of 0.1 M formic acid is added to the cell monolayer to inactivate the phospholipase C release the radiolabelled products into the assay medium.” left out
The agonist-dependent production of IPs, which reflects the degree of receptor activation, is quantitatively measured for each well of cells in the 24-well plate by separating the negatively charged radiolabelled IPs from other minor radiolabelled species and free [^3H]-myo-inositol by anion exchange chromatography. […]

[3] = target: FP prostaglandin receptor (Homo sapiens, UniProt P43088); assay: Selectivity for the FP prostaglandin receptor compared to other classes of prostaglandin receptors
Chain of FP prostaglandin receptor (P43088 whole entry): as above

## O=C(O)CCC/C=C\C[C@@H]1[C@@H](/C=C/[C@H](O)C2Cc3ccccc3C2)[C@@H](F)C[C@@H]1O [Compound III, (5Z,13E)-(9S,11S,15R)-9,15-Dihydroxy-11-fluoro-15-(2-indanyl)-16,17,18,19,20-pentanor-5,13-prostadienoic acid]
FP receptor [1]; Schild analysis, read-out: Kb, mol/L (potency as antagonist of the FP receptor)
  Kb: 250 nM
FP receptor [1]; fixed fluprostenol concentration about 10 times the agonist EC50, read-out: Ki (method of FIG. 2, antagonist concentration varied)
  Ki: 426 ± 63 nM
FP receptor [1]; fluprostenol agonist varied, fixed antagonist concentrations, n=4 experiments, read-out: Kb (Schild analysis)
  Kb: 285 ± 97 nM
FP receptor [1]; from Table 1
  Fold higher potency as FP receptor antagonist than phloretin: > 10 fold
FP receptor [1]; shift of fluprostenol dose-response curves, maximal effect unaltered
  Type of antagonism: competitive antagonist
FP receptor [2]
  Agonist classification (maximum effect relative to full agonists): partial agonist
Human ocular FP receptor
  Antagonism of fluprostenol-induced [3H]IPs production: behaved as an antagonist
[3]
  Selectivity for FP prostaglandin receptor versus other prostaglandin receptor classes: relatively good selectivity

## CCCCC[C@H](O)/C=C/[C@@H]1[C@@H](C/C=C\CCCC(=O)N(C)C)[C@@H](O)C[C@H]1O [PGF2α dimethyl amide, reference compound]
FP receptor [1]; Schild analysis
  Kb, mol/L (potency as antagonist of the FP receptor): Inactive

## O=C(O)CCC/C=C\CC1C(O)CC(O)C1/C=C/C(O)COc1cccc(Cl)c1 (stereo not shown) [cloprostenol]
FP receptor [2]
  Agonist classification (maximum effect relative to full agonists): full agonist

## CCCCC[C@H](O)/C=C/[C@@H]1[C@@H](C/C=C\CCCCN(C)C)[C@@H](O)C[C@H]1O [PGF2α dimethyl amine, reference compound]
FP receptor [1]; Schild analysis
  Kb, mol/L (potency as antagonist of the FP receptor): Inactive

## CCCCNC(=O)NS(=O)(=O)c1ccc(C)cc1 [Tolbutamide, reference compound]
FP receptor [1]; Schild analysis
  Kb, mol/L (potency as antagonist of the FP receptor): Inactive

## O=C(O)CCC/C=C\C[C@@H]1[C@@H](/C=C/[C@@H](O)COc2cccc(C(F)(F)F)c2)[C@H](O)C[C@@H]1O (racemic) [fluprostenol]
FP receptor [2]
  Agonist classification (maximum effect relative to full agonists): full agonist
